In PubChem BioAssay (NCI):
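All cell lines were grown in 96-well plates and treated with compound for 48 hours. TGI: total growth inhibition.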

Columns and labels:
Assay in all cases: NCI tumour cell line growth inhibition, 48 h
BT-549 breast = test system: BT-549 breast
HCC-2998 colon = test system: HCC-2998 colon
HL-60(TB) leukemia = test system: HL-60(TB) leukemia
HOP-62 NSCLC = test system: HOP-62 NSCLC
HT29 colon = test system: HT29 colon
K-562 leukemia = test system: K-562 leukemia
KM12 colon = test system: KM12 colon
MDA-MB-435 = test system: MDA-MB-435
MOLT-4 leukemia = test system: MOLT-4 leukemia
OVCAR-5 ovarian = test system: OVCAR-5 ovarian
SK-MEL-5 melanoma = test system: SK-MEL-5 melanoma
SNB-75 CNS = test system: SNB-75 CNS
UO-31 renal = test system: UO-31 renal
MCF7 breast = test system: MCF7 breast
MDA-N = test system: MDA-N
NCI-H23 lung = test system: NCI-H23 lung
SN12C renal = test system: SN12C renal

SMILES	TGI (BT-549 breast) [µM]	TGI (HCC-2998 colon) [µM]	TGI (HL-60(TB) leukemia) [µM]	TGI (HOP-62 NSCLC) [µM]	TGI (HT29 colon) [µM]	TGI (K-562 leukemia) [µM]	TGI (KM12 colon) [µM]	TGI (MDA-MB-435) [µM]	TGI (MOLT-4 leukemia) [µM]	TGI (OVCAR-5 ovarian) [µM]	TGI (SK-MEL-5 melanoma) [µM]	TGI (SNB-75 CNS) [µM]	TGI (UO-31 renal) [µM]	TGI (MCF7 breast) [µM]	TGI (MDA-N) [µM]	TGI (NCI-H23 lung) [µM]	TGI (SN12C renal) [µM]
Cc1ccc2nc(-c3ccc(N)c(I)c3)sc2c1	> 100	26.4	51	> 100	34.8	> 100	56.1	79.1	> 100	> 100	> 100	> 100	26.2				
N#Cc1sc2nc(/C=C3/C=CC=CC3=O)c(O)n2c1N		> 100	44.3	> 100	> 100	55.9	> 100	> 100	59.8	> 100	> 100	> 100	> 100	> 100	> 100	> 100	> 100
CC(=O)c1sc2c(c1OC(=O)c1cccs1)c(=O)n(-c1ccccc1)c(=S)n2-c1ccccc1		> 100	52.2	33.9	11.6	95.4	59	20.8	60.8	13.2	25.8	68.8		56.4	19.2	40.9	15.1
COc1ccc2c(c1)CC[C@@H]1[C@@H]2CC[C@]2(C)C(=O)/C(=C/c3ccc(OC)c(OC)c3)C[C@@H]12	> 100	> 100	> 100	> 100			> 100	> 100	> 100	> 100	> 100	> 100	> 100	> 100		> 100	
CNC(=S)N/N=C(C)\C(=N/NC(=S)NC)c1ccccc1	> 100	> 100		> 100			> 100			> 100	> 100	> 100	> 100	> 100	> 100	> 100	
CCOC(=O)CC1c2ccc(O)cc2OC(=O)C1c1ccc([N+](=O)[O-])cc1 (stereo not drawn)		60.6	60	68.2	> 100	> 100	97.8	56.1	78.6	> 100	29	56		40.9	93.5	96.7	81.3
CCC1c2[nH]c3ccccc3c2C[C@H]2C(=O)NC(COC(C)(C)C)C(=O)N12 (stereo partly drawn)	> 100		60.9	> 100	> 100	> 100	> 100	> 100	98.5	> 100	93.3	78.6	> 100	> 100		> 100	> 100
O=C1c2cc3c(cc2CC12Cc1cc4c(cc1C2=O)CCC4)CCCC3 (stereo not drawn)		> 100	> 100	> 100	> 100	> 100		> 100	> 100	> 100	> 100	> 100	> 100	> 100	> 100	> 100	
Cc1cn(C2CC(ON3C(=O)c4ccccc4C3=O)C(CO)O2)c(=O)[nH]c1=O (stereo not drawn)	> 10	> 10	> 10		> 10	> 10	> 10	> 10	> 10	> 10		> 10	> 10	> 10		> 10	> 10
CCOC(=O)C1=C(Nc2cccc(OC)c2)OCC1=O		> 100	> 100	> 100	> 100	> 100	> 100	> 100	> 100		> 100	> 100	> 100	> 100		> 100	
CC1(C#N)CC(C)(C)C(/C=C2/CC(C)(C)C(/C=C3/OC(=N)CC3(C)C)=N2)=N1 (stereo not drawn)		93.3	78.1	56.6	> 100	78.1	56.2	63.9	89.7	> 100	32.4	> 100		26.3	92.1	60.6	95.9
COc1ccc(C[N+]23C(CC[C@H]2c2ccccc2)CC[C@H]3c2ccccc2)cc1 (stereo partly drawn)			24.7	67.3	> 100	> 100	24.4	26.4	90.1	> 100	15.7	54.1	> 100	78.9	65.4		> 100
CC12CCC(C(=O)OC1=O)C2(C)C (stereo not drawn)		> 100	> 100	> 100	> 100	> 100	> 100	> 100	> 100	> 100		> 100	> 100	> 100	> 100	> 100	> 100
